This note sets out measurements from patent publication US20230383292A1, “TARGETING XIST AND RNA METHYLATION FOR X REACTIVATION THERAPY” (The General Hospital Corporation, priority 2020, published 2023).

This series relates to human XIST transcript. Briefly: XIST knock down by XIST ASOs (Table 1). It is filed as cell-based. Details: ASO conc at max KD: unit not given here. The note with it: for % Max KD: XIST knock down, cells treated for 72 hrs with XIST ASO; for ASO conc at max KD: concentration of XIST ASO giving max KD, 72 hrs. An excerpt:
The methods include administering an inhibitor of an XIST RNA itself, e.g., an inhibitory nucleic acid targeting XIST RNA. Although in typical usage XIST refers to the human sequence and XIST to the mouse sequence, in the present application the terms are used interchangeably. The human XIST sequence is available in the ensemble database at ENSG00000229807; it is present on Chromosome X at 73,820,651-73,852,753 reverse strand (Human GRCh38.p2). The sequences of exons 1-6 are shown in SEQ ID NOs:73-79 (see FIG. 2); XIST exons correspond to 601-11972 (exon 1); 15851-15914 (exon 2); 19593-20116 (exon 3); 21957-21984 (exon 4); 22080-22288 (exon 5); and 23887-33304 (exon 6). […] The inhibitory nucleic acid targeting XIST RNA can be any inhibitory nucleic acid as described herein, and can include modifications described herein or known in the art. In some embodiments, the inhibitory nucleic acid is an antisense oligonucleotide (ASO) that targets a sequence in XIST RNA, e.g., a sequence within an XIST exon as shown in SEQ ID NO:1-45 or within the RNA sequence as set forth in NR_001564.2, preferably wherein the ASO comprises a sequence as shown in Table 1. In some embodiments, the inhibitory nucleic includes at least one locked nucleotide, e.g., is a locked nucleic acid (LNA). Table 1 provides a list of ASOs that have more than 80% XIST knock down when cells are treated for 72 hrs with the below XIST ASOs.

For the substance “ASO 6Q: XIST antisense oligonucleotide TCAGAAGTCTGGCACATCTG, SEQ ID NO 5 (listed as DNA, chemistry not given here)”, the “% Max KD” value is reported as 99% and the “ASO conc at max KD” value is on record as 100.

For the substance “ASO 6I: XIST antisense oligonucleotide GTTCTGCACCTATCAGGCAG, SEQ ID NO 25 (listed as DNA, chemistry not given here)”, the “% Max KD” value stood at 93% and the “ASO conc at max KD” value came to 20.

As for “ASO 1P: XIST antisense oligonucleotide TAGCTCATGCAATGCACATG, SEQ ID NO 2 (listed as DNA, chemistry not given here)”, the “% Max KD” value was 99% and the “ASO conc at max KD” value worked out at 100.

As to “ASO 1A: XIST antisense oligonucleotide TAGTTAGCACTCCTGCTGCT, SEQ ID NO 7 (listed as DNA, chemistry not given here)”, the “% Max KD” value was 98% and the “ASO conc at max KD” value was 20.

In the case of “ASO 6D: XIST antisense oligonucleotide TCAAGACTGGCCCAGGCATA, SEQ ID NO 17 (listed as DNA, chemistry not given here)”, the “% Max KD” value came out at 96% and the “ASO conc at max KD” value was determined as 20.

“ASO 1F: XIST antisense oligonucleotide TTTAGCTCATGCAATGCACA, SEQ ID NO 9 (listed as DNA, chemistry not given here)”: the “% Max KD” value stood at 98% and the “ASO conc at max KD” value came to 20.

For “ASO 1W: XIST antisense oligonucleotide CTTAAGTAGTAGGTACTTCC, SEQ ID NO 3 (listed as DNA, chemistry not given here)”, the “% Max KD” value is reported as 99% and the “ASO conc at max KD” value was found to be 20.

In the case of “ASO 4A: XIST antisense oligonucleotide GGTTGTTGCCCAGTGGTAGT, SEQ ID NO 35 (listed as DNA, chemistry not given here)”, the “% Max KD” value is reported as 84% and the “ASO conc at max KD” value is on record as 20.

For the substance “ASO 1G: XIST antisense oligonucleotide CTGAGATCACAGACAAATGG, SEQ ID NO 19 (listed as DNA, chemistry not given here)”, the “% Max KD” value was 95% and the “ASO conc at max KD” value was 20.

As for “ASO 6C: XIST antisense oligonucleotide TTGGCCTTGTGTCACAAGTC, SEQ ID NO 12 (listed as DNA, chemistry not given here)”, the “% Max KD” value was determined as 97% and the “ASO conc at max KD” value is on record as 20.

For “ASO 6T: XIST antisense oligonucleotide CCCACAGAAAGTAATCACCA, SEQ ID NO 31 (listed as DNA, chemistry not given here)”, the “% Max KD” value came to 89% and the “ASO conc at max KD” value came out at 20.

“ASO 1X: XIST antisense oligonucleotide ACTCAGCAGCAATGGCAAAG, SEQ ID NO 29 (listed as DNA, chemistry not given here)”: the “% Max KD” value was 89% and the “ASO conc at max KD” value turned out to be 100.

For the substance “ASO 4P: XIST antisense oligonucleotide GTTGTTGCCCAGTGGTAGTG, SEQ ID NO 33 (listed as DNA, chemistry not given here)”, the “% Max KD” value was determined as 88% and the “ASO conc at max KD” value is 100.

“ASO 6B: XIST antisense oligonucleotide AGAAGTCTGGCACATCTGTG, SEQ ID NO 11 (listed as DNA, chemistry not given here)”: the “% Max KD” value was determined as 98% and the “ASO conc at max KD” value was found to be 100.

Turning to “ASO 1C: XIST antisense oligonucleotide TGAGGCACCAATACAGAGGA, SEQ ID NO 18 (listed as DNA, chemistry not given here)”, the “% Max KD” value stood at 95% and the “ASO conc at max KD” value came to 20.

With “ASO 5A: XIST antisense oligonucleotide CAAATTTCTTGGACCTGCTG, SEQ ID NO 16 (listed as DNA, chemistry not given here)”, the “% Max KD” value amounted to 96% and the “ASO conc at max KD” value is 20.

Regarding “ASO 4B: XIST antisense oligonucleotide CCAGGAAAGTATCTTGACAG, SEQ ID NO 32 (listed as DNA, chemistry not given here)”, the “% Max KD” value is on record as 88% and the “ASO conc at max KD” value worked out at 100.

Take “ASO 1V: XIST antisense oligonucleotide AGGACCTTATTCACATGGAA, SEQ ID NO 10 (listed as DNA, chemistry not given here)”: the “% Max KD” value turned out to be 98% and the “ASO conc at max KD” value was found to be 20.

In the case of “ASO 1D: XIST antisense oligonucleotide TCAGACTGTATGACTGACAT, SEQ ID NO 8 (listed as DNA, chemistry not given here)”, the “% Max KD” value amounted to 98% and the “ASO conc at max KD” value came out at 20.

Regarding “ASO 1U: XIST antisense oligonucleotide CTTACAACTGTGCACCTTGA, SEQ ID NO 15 (listed as DNA, chemistry not given here)”, the “% Max KD” value is 96% and the “ASO conc at max KD” value is 100.

As to “ASO 5P: XIST antisense oligonucleotide GTTCAAATTTCTTGGACCTG, SEQ ID NO 34 (listed as DNA, chemistry not given here)”, the “% Max KD” value is listed as 88% and the “ASO conc at max KD” value was 20.

As for “ASO 6R: XIST antisense oligonucleotide GGCCTTGTGTCACAAGTCTC, SEQ ID NO 6 (listed as DNA, chemistry not given here)”, the “% Max KD” value was found to be 99% and the “ASO conc at max KD” value is listed as 100.

For “ASO 6A: XIST antisense oligonucleotide TATGGCCCACAGTCTAAAGT, SEQ ID NO 1 (listed as DNA, chemistry not given here)”, the “% Max KD” value is reported as 99.3% and the “ASO conc at max KD” value is on record as 20.

Take “ASO 3P: XIST antisense oligonucleotide TAGATTAGCTGGAGCTTGGC, SEQ ID NO 4 (listed as DNA, chemistry not given here)”: the “% Max KD” value is 99% and the “ASO conc at max KD” value turned out to be 100.

As to “ASO 5B: XIST antisense oligonucleotide TTTCTTGGACCTGCTGAAGA, SEQ ID NO 20 (listed as DNA, chemistry not given here)”, the “% Max KD” value is reported as 95% and the “ASO conc at max KD” value worked out at 20.

Regarding “ASO 6E: XIST antisense oligonucleotide AGTTCAGGCTGTCCCCTTGG, SEQ ID NO 26 (LNA gapmer with DNA gap, wing lengths and linkages not given here)”, the “% Max KD” value is given as 92% and the “ASO conc at max KD” value is recorded as 20.

Take “ASO 5Q: XIST antisense oligonucleotide CAGATAGGAACAATGAAGAG, SEQ ID NO 30 (listed as DNA, chemistry not given here)”: the “% Max KD” value amounted to 89% and the “ASO conc at max KD” value was found to be 100.

For the substance “ASO 1E: XIST antisense oligonucleotide GAATTCCTCTTCTGCCACCT, SEQ ID NO 28 (listed as DNA, chemistry not given here)”, the “% Max KD” value was 91% and the “ASO conc at max KD” value was 20.

For the substance “ASO 1B: XIST antisense oligonucleotide GCCTGCCATATTGTCCCTGC, SEQ ID NO 14 (listed as DNA, chemistry not given here)”, the “% Max KD” value stood at 96% and the “ASO conc at max KD” value is 20.

In the case of “ASO 6U: XIST antisense oligonucleotide CTTTGTCCCAGGCACAGTCA, SEQ ID NO 13 (listed as DNA, chemistry not given here)”, the “% Max KD” value amounted to 97% and the “ASO conc at max KD” value is 20.

As for “ASO 6P: XIST antisense oligonucleotide CCAGAGTGGTAGAAGAGATA, SEQ ID NO 27 (listed as DNA, chemistry not given here)”, the “% Max KD” value was determined as 92% and the “ASO conc at max KD” value was 20.

On to “ASO 1S: XIST antisense oligonucleotide CAGAAACCCAAGTCTAATTG, SEQ ID NO 23 (listed as DNA, chemistry not given here)”, for which the “% Max KD” value was found to be 94% and the “ASO conc at max KD” value is listed as 20.

For the substance “ASO 1T: XIST antisense oligonucleotide AGGATGAACCATGTGGTGAT, SEQ ID NO 24 (listed as DNA, chemistry not given here)”, the “% Max KD” value came out at 93% and the “ASO conc at max KD” value is on record as 20.

On to “ASO 1R: XIST antisense oligonucleotide CTGTGACTACAGAAGCAATG, SEQ ID NO 22 (listed as DNA, chemistry not given here)”, for which the “% Max KD” value was determined as 94% and the “ASO conc at max KD” value turned out to be 100.
